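Test compounds were applied to cells in 96-well plates for 48 hours at 5 doses. TGI marks complete inhibition of growth.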

Some test systems named below: A498 renal; A549 NSCLC; CCRF-CEM leukemia; HCT-15 colon; HL-60(TB) leukemia; HOP-62 NSCLC; K-562 leukemia; LOX IMVI melanoma; NCI-H226 lung; NCI-H23 lung; NCI-H460 lung; OVCAR-3 ovarian; OVCAR-4 ovarian; RPMI-8226 leukemia; SNB-75 CNS; 786-0 renal; ACHN renal; SF-268 CNS.
Assay in all cases: NCI anticancer screen, dose series, 48 h

Regarding `C=C1CC(OC)(C(OC)C(=O)N[C@H]2OCO[C@H]3C2O[C@H](C[C@@H](COC)OC)C(C)(C)C3OC)O[C@H](C)[C@@H]1C` (stereo partly specified), the TGI worked out at 2.58 µM with A498 renal; 5.24 µM in the assay with A549 NSCLC; 1.43 µM with CCRF-CEM leukemia; 8.25 µM with HCT-15 colon; 1.33 µM in the assay with HL-60(TB) leukemia; 8.46 µM in the assay on HOP-62 NSCLC. Also, the TGI in the assay with K-562 leukemia is 3.38 µM; in the assay with LOX IMVI melanoma, > 47 µM; with NCI-H226 lung it was 7.73 µM; in the assay on NCI-H23 lung, 6.68 µM; in the assay with NCI-H460 lung, 5.96 µM; with OVCAR-3 ovarian, 2.96 µM. Besides, the values for the TGI with OVCAR-4 ovarian, in the assay on RPMI-8226 leukemia and with SNB-75 CNS were 4.25 µM, 0.917 µM and 9.99 µM, respectively.
`COc1ccc2c(c1)CCc1c-2[nH]c2cc3c(cc2c1=O)OCO3`: the TGI with 786-0 renal, in the assay on A549 NSCLC, in the assay on ACHN renal, with CCRF-CEM leukemia, in the assay on HCT-15 colon and in the assay with HL-60(TB) leukemia was > 100 µM each time. The TGI with HOP-62 NSCLC, in the assay on K-562 leukemia, with LOX IMVI melanoma, in the assay on NCI-H23 lung, in the assay with NCI-H460 lung and in the assay with OVCAR-4 ovarian was > 100 µM throughout. The TGI in the assay with RPMI-8226 leukemia and in the assay on SNB-75 CNS was > 100 µM each time.
In the case of `Cc1cc(=O)oc2c1cc1ccc3cccc4ccc2c1c34`, the TGI in the assay on A498 renal, with ACHN renal, with CCRF-CEM leukemia, in the assay on HCT-15 colon, in the assay with HL-60(TB) leukemia and with K-562 leukemia was > 100 µM throughout. Also, the TGI with LOX IMVI melanoma, in the assay on NCI-H226 lung, with NCI-H23 lung, with NCI-H460 lung, with OVCAR-3 ovarian and in the assay with RPMI-8226 leukemia was > 100 µM in each case. The TGI is > 100 µM with SF-268 CNS and 98.4 µM with SNB-75 CNS.
Regarding `Cc1ccc(Nc2cccc3c2C(=O)c2cccc(Nc4ccc(C)cc4S(=O)(=O)O)c2C3=O)c(S(=O)(=O)O)c1`, the TGI in the assay on 786-0 renal, in the assay with A498 renal, in the assay on A549 NSCLC, in the assay on ACHN renal, in the assay on CCRF-CEM leukemia and in the assay on HCT-15 colon was > 100 µM in each case. Further, the TGI in the assay with HL-60(TB) leukemia, with HOP-62 NSCLC, in the assay on K-562 leukemia, with NCI-H226 lung, with NCI-H460 lung and in the assay with OVCAR-3 ovarian was > 100 µM throughout. The TGI in the assay on OVCAR-4 ovarian, in the assay on RPMI-8226 leukemia, with SF-268 CNS and with SNB-75 CNS was > 100 µM throughout.
`CCN(CC)C(=O)CCn1cc(F)c(=O)[nH]c1=O`: the TGI in the assay with 786-0 renal, with A549 NSCLC, in the assay with ACHN renal, in the assay on CCRF-CEM leukemia, in the assay on HCT-15 colon and in the assay on HL-60(TB) leukemia was > 100 µM in each case. Also, the TGI with HOP-62 NSCLC, in the assay with K-562 leukemia, in the assay with LOX IMVI melanoma, with NCI-H226 lung, with NCI-H23 lung and with NCI-H460 lung was > 100 µM in each case. Besides, the TGI with OVCAR-3 ovarian, in the assay with OVCAR-4 ovarian, in the assay on RPMI-8226 leukemia, with SF-268 CNS and in the assay on SNB-75 CNS was > 100 µM each time.
For the compound `CNC(=O)C(C)Oc1ccc(OCC2CCCCC2)cc1` (stereo unspecified), the TGI with 786-0 renal, in the assay with A498 renal, in the assay on A549 NSCLC, in the assay with ACHN renal, in the assay with CCRF-CEM leukemia and in the assay with HCT-15 colon was > 100 µM throughout. Also, the TGI with HL-60(TB) leukemia, with K-562 leukemia, with LOX IMVI melanoma, with NCI-H226 lung, with NCI-H23 lung and in the assay with NCI-H460 lung was > 100 µM each time. Moreover, the TGI in the assay with OVCAR-3 ovarian, with OVCAR-4 ovarian, in the assay with SF-268 CNS and in the assay with SNB-75 CNS was > 100 µM throughout.
Consider `ICC1CCCO1` (stereo unspecified), for which the TGI in the assay with A498 renal, in the assay on A549 NSCLC, in the assay on ACHN renal, in the assay on CCRF-CEM leukemia, in the assay on HCT-15 colon and with HL-60(TB) leukemia was > 100 µM each time. Besides, the TGI with LOX IMVI melanoma, in the assay with NCI-H226 lung, in the assay on NCI-H23 lung, with NCI-H460 lung, with OVCAR-4 ovarian and in the assay on RPMI-8226 leukemia was > 100 µM in each case. For the same compound, the TGI in the assay with SF-268 CNS and in the assay with SNB-75 CNS was > 100 µM throughout.
